Test results as given in publication PMC9271048, “Probing strigolactone perception mechanisms with rationally designed small-molecule agonists stimulating germination of root parasitic weeds” (Nature Communications, 2022).
Like-named read-outs stand apart in the source and are kept apart here.

Assays:
ShHTL7 [1] = biological target: T1, ShHTL7 (Striga hermonthica, UniProt A0A0M3PNA2); assay: Competitive inhibition of ShHTL7 with Yoshimulactone Green (YLG) as substrate; type: biochemical
Experimental: Based on the structural feature of the lead compound 2h, we selected three regions to perform further modification (Supplementary Fig. 6), to try to further improve bioactivity. Insertion of a carbonyl group between the bicyclo[2.2.1]hept-5-en-2-yl group and the piperazine ring was detrimental to binding affinity (Supplementary Fig. 6, region A). Removal of an oxygen atom in region B was found unfavorable to binding affinity as well. Therefore, we focused on modifying the benzene ring (region C) for 2h. A series of compounds with different groups at region C was synthesized (Supplementary Scheme 1). […] As SPR just measures the binding ability, another independent assay by using Yoshimulactone Green (YLG) as the fluorescent substrate was performed to determine the half-maximal inhibitory concentration (IC50) of these compounds against ShHTL7[22].
The excitation and emission wavelengths of YLG are 480 and 520 nm, respectively. We used a fluorescence spectrophotometer (CARY Eclipse) to detect the fluorescence intensity change of YLG during the enzymatic hydrolysis assay process. All the testing compounds and YLG were dissolved in DMSO and prepared as stock solutions just before use. […] The changes of fluorescence at 520 nm of each well were recorded every 1 min for 30 min. Using the reaction mixture without adding enzyme and tested compounds as the background control. After subtracting the background hydrolysis, a linear fluorescence increase in 8 min was used for further inspection. The IC50 values were determined via fitting relative inhibition percentages with the varying concentrations of compounds in Microsoft Excel.

P. aegyptiaca seeds = assay: P. aegyptiaca seed germination assay; type: in vivo, Phelipanche aegyptiaca; set-up: P. aegyptiaca germination EC50 values, source data average: unit not given here; P. aegyptiaca seed germination activity, source data average: unit of the concentration uncertain; details: for P. aegyptiaca germination(%): Supplementary Table 1, compounds tested at 10 μM, means ± SD, n = 3; for P. aegyptiaca seed germination activity, source data average: Supplementary Fig. 9b
Experimental: P. aegyptiaca seeds were harvested from Xinjiang province, China in 2017. The seeds were surface sterilized using 1% NaClO solution for 2 min and then washed with distilled water six times. For seed germination assay, about 20 pieces of glass fiber-filter paper discs (15 mm diameter, Whatman GF/B) were placed separately on two layers of filter papers (9 cm diameter, Whatman) in a Petri dish. Five milliliters of distilled water was added to each Petri dish to wet the papers. Approximately 40–90 sterilized seeds were spread onto each glass fiber-filter paper disc. After the seeds were conditioned in the dark at 25 °C for 4 days[48], glass fiber-filter paper discs were blotted dry on filter papers (9 cm) and transferred to the wells of 24-well cell culture plates. The testing compounds were dissolved in acetone and diluted with H2O (VH2O/Vacetone = 999/1) just before use[49]. rac-GR24 and 1‰ acetone solution were used as positive and negative controls, respectively. One hundred microliters of the test solution was added to each well of the plates, and all treatments were performed in three biological repeats. The plates were sealed and incubated in the dark at 25 °C for a week. The experiments were performed at least three times. The germinated seeds were observed by using an electronic magnifier at ×20 magnification.

ShHTL7 [2] = biological target: T1, ShHTL7; assay: biochemical; type: binding
Experimental: We used a sensitive, high-throughput Surface plasmon resonance (SPR) method to examine the binding affinities of the 51 candidates to the recombinant ShHTL7 protein, which was immobilized on the CM5 sensor chip. rac-GR24 was used as a positive control.
The interactions of small molecules with recombinant ShHTL7 were evaluated using the Biacore T200 system (GE Healthcare, USA) at 25 °C[47]. The purified ShHTL7 protein was immobilized on a CM5 sensor chip using the standard amine coupling procedure. […] PBS-P (10 mM phosphate buffer, 2.7 mM KCl, 137 mM NaCl, 0.05% Surfactant P20) containing 0.5% DMSO was used as the running buffer. For the screening experiments, candidates with different structures at 50 μM in the running buffer were injected individually at a flow rate of 30 μL min^−1. For binding affinity studies, compounds with different concentrations in running buffer were used. During the experiments, both the contact and dissociation times were set as 1 min. Data analysis was performed using the Biacore Evaluation Software (T200 Version 2.0). The affinity values (KD) were obtained by the kinetics analysis or the steady-state affinity method.

[3] = YLG used as the substrate, means ± SD, n = 3, read-out: IC50 (Supplementary Table 1)
[4] = YLG as substrate, text and Fig. 2, read-out: IC50, competitive ShHTL7 inhibition (YLG assay)
[5] = wild-type ShHTL7, average of 3, source data of Fig. 2a,b, Supplementary Figs. 8a, 9a, 20b, read-out: IC50, competitive ShHTL7 inhibition (YLG), source data average
[6] = Supplementary Table 7, binding affinities between ShHTL7 and agonists by SPR, read-out: KD/μM
[7] = source data of Fig. 2c and Supplementary Fig. 8b, average of 3

T1 sequence (A0A0M3PNA2 entry or part of it): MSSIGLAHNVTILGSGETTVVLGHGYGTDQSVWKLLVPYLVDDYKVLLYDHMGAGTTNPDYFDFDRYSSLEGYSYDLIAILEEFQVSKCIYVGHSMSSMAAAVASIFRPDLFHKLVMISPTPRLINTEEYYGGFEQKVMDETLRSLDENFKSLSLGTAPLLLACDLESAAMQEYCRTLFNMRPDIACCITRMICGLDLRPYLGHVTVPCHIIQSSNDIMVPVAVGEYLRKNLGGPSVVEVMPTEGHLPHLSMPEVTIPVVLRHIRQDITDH

Structure (SMILES) | IC50 (ShHTL7 [1]; [3]) [µM] | P. aegyptiaca germination(%) (P. aegyptiaca seeds) | IC50 (ShHTL7 [1]; [5]) [µM] | Kd (ShHTL7 [2]; [6]) [µM] | P. aegyptiaca germination EC50 values, source data average (P. aegyptiaca seeds; [7]) | also measured
O=C(COc1cc(Cl)ccc1Cl)N1CCN(CC2CC3C=CC2C3)CC1 (stereo not drawn) [3k] | 32.2 ± 1.99 | 43.5 |  |  |  | 
O=C(COc1ccccc1)N1CCN(CC2CC3C=CC2C3)CC1 (stereo not drawn) [3l] | 18 ± 1.32 | 26.3 |  |  |  | 
Cc1ccccc1OCC(=O)N1CCN(CC2CC3C=CC2C3)CC1 (stereo not drawn) [3m] | 9.16 ± 1.2 | 29.7 |  |  |  | 
O=C(COc1ccc(C(F)(F)F)cc1)N1CCN(CC2CC3C=CC2C3)CC1 (stereo not drawn) [3n] | 12.8 ± 2.97 | 47.8 |  |  |  | 
O=C(COc1ccc(Cl)cc1)N1CCN(CC2CC3C=CC2C3)CC1 (stereo not drawn) [3o] | 22 ± 2.43 | 21.4 |  |  |  | 
O=C(COc1ccc([N+](=O)[O-])cc1)N1CCN(CC2CC3C=CC2C3)CC1 (stereo not drawn) [3p] | 15.6 ± 0.37 | 18.6 |  |  |  | 
CS(=O)(=O)c1ccc(OCC(=O)N2CCN(CC3CC4C=CC3C4)CC2)cc1 (stereo not drawn) [3q] | 24.1 ± 6.49 | 34.8 |  |  |  | 
Cc1ccc(CCC(=O)N2CCN(CC3CC4C=CC3C4)CC2)cc1 (stereo not drawn) [3r] | 34.2 ± 6.9 | 34.2±6.9 |  |  |  | 
CC1=CC(OC(=O)N2CCN(C(=O)COc3c(F)c(F)c(F)c(F)c3F)CC2)OC1=O (stereo not drawn) [4b] |  |  | 3.03 |  |  | Kd (ShHTL7 [2]): 2.21 ± 0.42 µM; IC50 (ShHTL7 [1]; [4]): 3.03 ± 0.58 µM; EC50 (P. aegyptiaca seeds; Phelipanche aegyptiaca, read-out: EC50, P. aegyptiaca seed germination): ~0.0552 µM; EC50 (P. aegyptiaca seeds; Phelipanche aegyptiaca, source data of Fig. 2c and Supplementary Fig. 8b, average of 3, read-out: P. aegyptiaca germination EC50 values, source data average (converted)): 0.0482 µM
CC1=CC(OC(=O)N2CCN(CC3CC4C=CC3C4)CC2)OC1=O (stereo not drawn) [4c] |  |  | 4.56 | 13.9 ± 2.6 | 8.757 | IC50 (ShHTL7 [1]; [4]): 4.56 ± 0.78 µM; EC50 (P. aegyptiaca seeds; in vivo, read-out: EC50, P. aegyptiaca seed germination): 0.00226 µM
CC1=CC(OC(=O)N2CCN(C(=O)COc3ccc(F)cc3C)CC2)OC1=O (stereo not drawn) [4d] |  |  | 3.78 | 0.82 ± 0.26 | 8.181 | 
CC1=CC(OC(=O)N2CCN(C(=O)COc3ccc(Cl)cc3C)CC2)OC1=O (stereo not drawn) [4e] |  |  | 2.35 | 6.33 ± 3.1 | 8.242 | 
CC1=CC(OC(=O)N2CCN(C(=O)C(F)(F)Oc3ccc(Br)cc3C)CC2)OC1=O (stereo not drawn) [4f] |  |  | 4.25 | 1.96 ± 0.29 | 6.406 | 
CCCCOc1ccc(S(=O)(=O)N2CCN(C(=O)OC3C=C(C)C(=O)N3C)CC2)cc1 (stereo not drawn) [4j] |  |  | 105 | 18.1 ± 6.29 |  | P. aegyptiaca seed germination activity, source data average (P. aegyptiaca seeds; 0.1 (unit uncertain) as printed): 4.315%; P. aegyptiaca seed germination activity, source data average (P. aegyptiaca seeds; 1 (unit uncertain) as printed): 14.0733%; P. aegyptiaca seed germination activity, source data average (P. aegyptiaca seeds; 10 (unit uncertain) as printed): 45.7326%
CCCCOc1ccc(S(=O)(=O)N2CCN(C(=O)OC3C=C(C)C(=O)O3)CC2)cc1 (stereo not drawn) [SPL7, reference compound] |  |  | 4.31 | 4.81 ± 0.02 | 7.443 | 
C1=CC2CC1CC2CN1CCNCC1 (stereo not drawn) [ZJT1] |  | 1.6 |  |  |  | IC50 (ShHTL7 [1]; YLG used as the substrate, read-out: IC50 (Supplementary Table 1), symbol): > 400 µM
